Reference: patent US20050261290A1, “Novel compounds of proline and morpholine derivatives” (priority 2004, published 2005)
Where two headings read alike, the source gives them in different places.

Molecular target: human 11b-hsd-1 (Homo sapiens, UniProt P28845)
Assay: Inhibition constant Ki of human 11b-hsd-1 (3H-cortisone to 3H-cortisol conversion, HPLC)
Format: biochemical
Details: for Ki: apparent Ki, read-out: Ki app
Protocol: In each well, varying amounts of compounds are incubated with a fixed amount of 11b-hsd-1 (4 nM) and NADPH (500 μM) for 30 to 40 min at room temperature in the assay buffer. The enzyme concentration was determined by titration using reversible tight-binding inhibitors. […] The area of 3H-cortisol is calculated and plotted versus time to determine a linear velocity. […] Where vi, and vo are the rates of cortisol formation in the presence and in the absence of inhibitor, respectively, I is the inhibitor concentration and E is the 11 b-hsd-1 concentration in the assay buffer. […] NADPH, Glucose-6-Phosphate (G6P), and Glucose-6-Phosphate dehydrogenase was purchased from Sigma.

Chain of human 11b-hsd-1 (P28845 whole entry): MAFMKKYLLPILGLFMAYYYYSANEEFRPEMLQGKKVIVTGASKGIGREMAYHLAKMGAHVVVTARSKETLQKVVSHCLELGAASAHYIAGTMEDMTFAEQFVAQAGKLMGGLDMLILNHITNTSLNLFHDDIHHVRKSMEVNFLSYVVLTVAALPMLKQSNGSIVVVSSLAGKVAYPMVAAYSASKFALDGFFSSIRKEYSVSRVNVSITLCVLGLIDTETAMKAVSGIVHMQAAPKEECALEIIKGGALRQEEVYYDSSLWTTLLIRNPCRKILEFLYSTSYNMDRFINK

| SMILES | Ki (human 11b-hsd-1) | inhibition at 0.1 µM (compound at 0.1 μM) | inhibition at 0.1 µM (0.1 μM compound) | Ki |
| --- | --- | --- | --- | --- |
| COC(C)(C)CN1CCC[C@@H]1C(=O)NC1CCCCC1 [Example 88, 1-(2-Methoxy-2-methyl-propyl)-pyrrolidine-2-carboxylic acid cyclohexylamide] | 7 nM | 94% | – | – |
| CC(C)CN1CCOC[C@@H]1C(=O)NC1CCCCC1 [Example 332] | – | – | 100% | 2.2 nM |
| CCCN1CCC[C@@H]1C(=O)NC1(C)CCCCC1 [Example 104] | 6 nM | 100% | – | – |
| CCC1CCCCN1C(=O)C1CCCCN1Cc1ccc(Cl)cc1 (centres unmarked) [Example 199] | – | – | 80.2% | 32 nM |
| CCCN1CCC[C@@H]1C(=O)NC12C3C4C1C1C2C3C41C (some centres unmarked) [Example 123] | – | 100% | – | – |
| O=C(NCc1ccc(F)cc1)[C@H]1CCCN1CCC(F)(F)F [Example 324] | – | – | 69.2% | 69 nM |
| O=C(NC12CC3CC(CC(C3)C1)C2)C1COCCN1Cc1ccccc1 (centres unmarked) [Example 178] | 1 nM | 100% | – | – |
| CCCN1CCC[C@@H]1C(=O)NC1CC2CCC1C2 (some centres unmarked) [Example 91] | – | 100% | – | – |
| COc1ccccc1CNC(=O)[C@H]1CCCN1CCC(F)(F)F [Example 263] | – | – | 77.5% | 62 nM |
| N#Cc1cccc(CN2CCOCC2C(=O)NC23CC4CC(CC(C4)C2)C3)c1 (centres unmarked) [Example 179] | 2 nM | 100% | – | – |
| CCN1CCC[C@@H]1C(=O)NC1CCCCC1C (some centres unmarked) [Example 58] | 28 nM | 70% | – | – |
| CN(C(=O)[C@H]1COCCN1CC1CCCCC1)C1CCCCC1 [Example 11, (3R)-N-cyclohexyl-4-(cyclohexylmethyl)-N-methylmorpholine-3-carboxamide] | 38.3 nM | 80% | – | – |
| CC1(C)CC(NC(=O)C2COCCN2CC2CCCC2)CC(C)(C)C1 (centres unmarked) [Example 190] | 1.1 nM | 100% | – | – |
| O=C(NC12CC3CC(CC(C3)C1)C2)[C@H]1CCCN1Cc1ccccc1 [Example 248] | – | – | 100% | 1.3 nM |
| CCCN1CCC[C@@H]1C(=O)NC1CCCCC1C (some centres unmarked) [Example 55] | 3.7 nM | 100% | – | – |
| CC(C)CN1CCOC[C@@H]1C(=O)NCc1c(F)cccc1F [Example 32] | – | 67% | – | – |
| O=C(NC1CCCCC1)[C@H]1C[C@@H](O)CN1CC1CCCC1 [Example 30] | – | 63% | – | – |
| CC1(C(=O)NC2CCCCC2)CCCN1Cc1ccc(C#N)cc1 (centres unmarked) [Example 59] | 22 nM | 71% | – | – |
| O=C(NC1C2CC3CC(C2)CC1C3)[C@@H]1C[C@H](Oc2ccccc2)CN1 (some centres unmarked) [Example 338] | – | – | 100% | 1 nM |
| O=C(N[C@@H]1CCCc2ccccc21)[C@H]1COCCN1CC1CCCC1 [Example 318] | – | – | 84.8% | 13 nM |
| CC1(C)CC(NC(=O)C2COCCN2Cc2cccc(C#N)c2)CC(C)(C)C1 (centres unmarked) [Example 187] | 3 nM | 100% | – | – |
| N#Cc1cccc(CN2CCC[C@@H]2C(=O)NC23CC4CC(CC(C4)C2)C3)c1 [Example 249] | – | – | 100% | 1 nM |
| CC(C)Oc1ccccc1O[C@@H]1CN[C@H](C(=O)NC2C3CC4CC(C3)CC2C4)C1 (some centres unmarked) [Example 364] | – | – | 100% | 4.6 nM |
| O=C(NC1C2CC3CC(C2)CC1C3)[C@H]1CCCN1CC1CCNC1 (some centres unmarked) [Example 142] | – | 100% | – | – |

| SMILES | Ki (human 11b-hsd-1) | inhibition at 0.1 µM (compound at 0.1 μM) | inhibition at 0.1 µM (0.1 μM compound) | Ki |
| --- | --- | --- | --- | --- |
| CS(=O)(=O)N1CCC(CN2CCC[C@@H]2C(=O)NC2C3CC4CC(C3)CC2C4)CC1 (some centres unmarked) [Example 140] | – | 100% | – | – |
| Cc1ccc(CNC(=O)[C@H]2CCCN2CC(C)C)cc1 [Example 259] | – | – | 100% | 11 nM |
| O=C(NCc1cccc(F)c1)[C@H]1CCCN1CC1CCCC1 [Example 240] | – | – | 76.3% | 44 nM |
| CN(C(=O)[C@H]1COCCN1Cc1ccccc1)C1CCCCC1 [Example 303] | – | – | 50% | 4.4 nM |
| O=C(NCc1ccccc1)[C@H]1CCCN1CC1CC1 [Example 224] | – | – | 90% | 189 nM |
| O=C(NC1C2CC3CC(C2)CC1C3)[C@@H]1C[C@H](Oc2ccc(Cl)cc2)CN1 (some centres unmarked) [Example 339] | – | – | 97.7% | 1 nM |
| O=C(NC1C2CC3CC(C2)CC1C3)[C@@H]1C[C@H](Oc2c(F)cc(F)cc2F)CN1 (some centres unmarked) [Example 363] | – | – | 100% | 1 nM |
| CC(C)CN1CCC[C@@H]1C(=O)NCc1ccc(Cl)cc1 [Example 221] | – | – | 95.7% | 5.9 nM |
| CCN1[C@@H](C(=O)NC2CCCCC2)CCC1(C)C [Example 131] | – | 88% | – | – |
| Cc1ccccc1CNC(=O)[C@H]1CCCN1CCC(F)(F)F [Example 264] | – | – | 86.5% | 10 nM |
| CCOCCN1CCC[C@@H]1C(=O)NC1CCCCC1 [Example 95] | 39 nM | 78% | – | – |
| CC(C)CN1CSC[C@@H]1C(=O)N(C)C1CCCCC1 [Example 196] | – | – | 85.3% | 27 nM |
| CCCN1CCOC[C@@H]1C(=O)NCC1CCCCC1 [Example 335] | – | – | 100% | 6.9 nM |
| O=C(NC1C2CC3CC(C2)CC1C3)[C@@H]1C[C@H](Oc2cccc(F)c2)CN1 (some centres unmarked) [Example 319] | – | – | 100% | 1.7 nM |
| CC(C)CN1CCC[C@@H]1C(=O)NCc1cccc(F)c1 [Example 237] | – | – | 100% | 10.3 nM |
| O=C(NC1C2CC3CC(C2)CC1C3)[C@H]1CCCN1CCN1CCCC1 (some centres unmarked) [Example 132] | – | 92% | – | – |
| O=C(NC1C2CC3CC(C2)CC1C3)[C@@H]1C[C@H](Oc2ccccc2Cl)CN1 (some centres unmarked) [Example 360] | – | – | 100% | 1.4 nM |
| COc1cc(F)ccc1O[C@@H]1CN[C@H](C(=O)NC2C3CC4CC(C3)CC2C4)C1 (some centres unmarked) [Example 353] | – | – | 100% | 4.9 nM |
| O=C(NC1C2CC3CC(C2)CC1C3)[C@H]1CCCN1CC1CCOC1 (some centres unmarked) [Example 115] | – | 100% | – | – |
| N#Cc1ccc(CN2CCCC(C(=O)NC3C4CC5CC(C4)CC3C5)C2)cc1 (centres unmarked) [Example 163] | – | 100% | – | – |
| O=C(NC1C2CC3CC(C2)CC1C3)[C@H]1CCCN1C[C@H]1CCCN1 (some centres unmarked) [Example 138] | – | 100% | – | – |
| C[C@@H](NC(=O)[C@H]1CCCN1Cc1ccccc1)c1ccc(Cl)cc1 [Example 296] | – | – | 95.7% | 11.4 nM |
| CC(C)CN1C[C@H](O)C[C@H]1C(=O)NC12CC3CC(CC(C3)C1)C2 [Example 207] | – | – | 92.1% | 11 nM |
| N#Cc1ccc(CN2CCOC[C@@H]2C(=O)NC2CCCCC2)cc1 [Example 306] | – | – | 100% | 4.9 nM |

| SMILES | Ki (human 11b-hsd-1) | inhibition at 0.1 µM (compound at 0.1 μM) | inhibition at 0.1 µM (0.1 μM compound) | Ki |
| --- | --- | --- | --- | --- |
| O=C(NCc1ccccc1)C1COCCN1CC1CCCCC1 (centres unmarked) [Example 322] | – | – | 62.5% | 45 nM |
| CC(C)CN1CCC[C@@H]1C(=O)NC(C)c1ccc(F)cc1 (some centres unmarked) [Example 290] | – | – | 96.2% | 6.85 nM |
| CCCN1CCC[C@@H]1C(=O)NC1CCCCCC1 [Example 93] | 2 nM | 100% | – | – |
| CCOc1cccc(O[C@@H]2CN[C@H](C(=O)NC3C4CC5CC(C4)CC3C5)C2)c1 (some centres unmarked) [Example 358] | – | – | 100% | 4.5 nM |
| CC(C)CN1CCC[C@@H]1C(=O)N[C@H]1c2ccccc2C[C@H]1O [Example 288] | – | – | 99.1% | 5.51 nM |
| O=C(N[C@@H]1CCCc2ccccc21)[C@H]1CCCN1CC1CCCC1 [Example 299] | – | – | 100% | 2.23 nM |
| C[C@@H](O)CN1CCC[C@@H]1C(=O)NC1C2CC3CC(C2)CC1C3 (some centres unmarked) [Example 118] | – | 100% | – | – |
| CCCN1CCC[C@@H]1C(=O)N[C@@H]1CCCc2ccccc21 [Example 56] | 8 nM | 92% | – | – |
| CC(C)CN1C[C@H](O)C[C@@H]1C(=O)NCC1CCCCC1 [Example 337] | – | – | 97.8% | 13 nM |
| CN(C)CCCN1CCC[C@@H]1C(=O)NC1C2CC3CC(C2)CC1C3 (some centres unmarked) [Example 108] | 9 nM | 100% | – | – |
| CC(C)CN1C[C@H](O)C[C@@H]1C(=O)NC1C2CC3CC(C2)CC1C3 (some centres unmarked) [Example 25] | 1.7 nM | 100% | – | – |
| CN(Cc1ccccc1Cl)C(=O)[C@H]1COCCN1CC1CCCC1 [Example 312] | – | – | 95.3% | 14 nM |
| O=C(N[C@@H]1CCCc2ccccc21)[C@H]1CCCN1Cc1ccccc1 [Example 295] | – | – | 100% | 4.5 nM |
| CC[C@H]1CCN[C@@H]1C(=O)NC1C2CC3CC(C2)CC1C3 (some centres unmarked) [Example 345] | – | – | 76.5% | 27 nM |
| N#Cc1ccc(CN2CCC[C@@H]2C(=O)N[C@@H]2CCc3ccccc32)cc1 [Example 285] | – | – | 100% | 7.82 nM |
| Cc1ccccc1CNC(=O)[C@H]1CCCN1Cc1ccc(C#N)cc1 [Example 252] | – | – | 82.6% | 52 nM |
| CN(C(=O)[C@H]1CCCN1Cc1ccc(Cl)cc1)C1CCCCC1 [Example 191] | 28 nM | 83.7% | – | – |
| O=C(NC1C2CC3CC(C2)CC1C3)[C@H]1C[C@@H](O)CN1Cc1ccc(F)cc1 (some centres unmarked) [Example 27] | 1.1 nM | 100% | – | – |
| Cc1cccc(CNC(=O)[C@H]2CCCN2CC(C)C)c1 [Example 258] | – | – | 90.1% | 24 nM |
| CC(C)CN1CCC[C@@H]1C(=O)NC1CCC(F)(F)CC1 [Example 136] | – | 100% | – | – |
| O=C(NC1C2CC3CC(C2)CC1C3)[C@H]1NCC[C@@H]1c1ccc(Cl)cc1 (some centres unmarked) [Example 367] | – | – | 93.5% | 7.5 nM |
| CC(C)CN1CCOC[C@@H]1C(=O)N[C@@H]1CCc2ccccc21 [Example 308] | – | – | 97.7% | 5.71 nM |
| CCOc1ccccc1CNC(=O)[C@H]1CCCN1CC(C)C [Example 53] | 4.6 nM | 100% | – | – |
| CC(C)OCCN1CCC[C@@H]1C(=O)NC1CCCCC1 [Example 96] | 39 nM | 84% | – | – |
